Like-named read-outs stand apart in the source and are kept apart here.
Legend:
Assay type in all cases: cell-based
[1] = test system: E. coli strain ET8000 (gyr mutation); test: microbe, parasite or virus in culture; settings: Escherichia coli
[2] = test system: E. coli cells; test: Disk diffusion assay, synergistic effect of thymol with Mentha hybrid oil; settings: Escherichia coli; thymol 50 μg/disc
[3] = test system: Mycobacterium smegmatis wild type strain MC^2; test: microbe, parasite or virus in culture; settings: Mycolicibacterium smegmatis
[4] = test system: Escherchia coli strain CA8000; test: organism not typed; settings: for zone of inhibition at 50 µg/disc: 50 μg/disc; for zone of inhibition at 100 µg/disc: 100 μg/disc
Source text: Activity of the Compound of the Present Invention Thymol at Different pH in Escherchia coli Strain CA8000
The above table clearly indicate that the activity of the present compound is maximum at neutral pH (7.00).

[5] = test system: lomefloxacin resistant mutants of Escherichia coli; test: microbe, parasite or virus in culture
[6] = test system: E. coli strain CA8000 (wild type); test: microbe, parasite or virus in culture; settings: Escherichia coli
[7] = test system: E. coli strain DH5α (gyr mutation); test: microbe, parasite or virus in culture; settings: Escherichia coli
[8] = test system: E. coli CAO3; test: microbe, parasite or virus in culture; settings: Escherichia coli, CAO3, read-out: inhibition zones
[9] = test system: Ethidium bromide resistant strain of Mycobacterium smegmetis; test: microbe, parasite or virus in culture; settings: read-out: Activity of thymol (zone)
[10] = test system: E. coli CAO3 (revert); test: microbe, parasite or virus in culture; settings: Escherichia coli, read-out: inhibition zones
[11] = test system: nalidixic acid resistant mutants of Escherichia coli; test: microbe, parasite or virus in culture; settings: for inhibition zones / zone of inhibition at 50 µg/disc: 50 μg/disc; for zone of inhibition at 100 µg/disc / zone of inhibition at 250 µg/disc / zone of inhibition at 50 µg/disc: Escherichia coli; for zone of inhibition at 100 µg/disc: 100 μg/disc; for zone of inhibition at 250 µg/disc: 250 μg/disc
[12] = test system: multidrug resistant bacteria
[13] = test system: lomefloxacin resistant mutants of Mycobacterium smegmatis; test: microbe, parasite or virus in culture; settings: Mycolicibacterium smegmatis; for zone of inhibition at 100 µg/disc: 100 μg/disc
[14] = test system: E. coli cells; test: microbe, parasite or virus in culture; settings: Escherichia coli
[15] = read-out: inhibition zones, CAN 102
[16] = read-out: inhibition zones, CAN 104
[17] = read-out: inhibition zones, CAN 105
[18] = read-out: inhibition zones, CAN 106
[19] = read-out: inhibition zones, CAN 107
[20] = read-out: inhibition zones, CAN 108
[21] = read-out: inhibition zones, CAN 109
[22] = read-out: inhibition zones, CAN 110
[23] = read-out: inhibition zones, CAN 111
[24] = read-out: inhibition zones, CAN 112
[25] = read-out: inhibition zones, CAN 113
[26] = read-out: inhibition zones, CAN 114
[27] = read-out: inhibition zones, CAN 115
[28] = read-out: inhibition zones, CAN 116
[29] = read-out: inhibition zones, CAN 117
[30] = read-out: inhibition zones, CAN 118
[31] = read-out: inhibition zones, CAN 119
[32] = read-out: inhibition zones, CAN 120
[33] = read-out: inhibition zones, CAN 121
[34] = read-out: inhibition zones, CAN 122
[35] = read-out: inhibition zones, CAN 123
[36] = read-out: inhibition zones, CAN 124
[37] = read-out: inhibition zones, CAN 125
[38] = read-out: inhibition zones, CAN 126

Cc1ccc(C(C)C)c(O)c1 [Thymol]
4 mm: zone of inhibition at 250 µg/disc ([3]; read-out: inhibition zones) | zone of inhibition at 100 µg/disc ([4]; pH 4.00) | zone of inhibition at 100 µg/disc ([5]; read-out: inhibition zones, CAL 101, 100 μg/disc) | zone of inhibition at 100 µg/disc ([5]; read-out: inhibition zones, CAL 105, 100 μg/disc) | zone of inhibition at 100 µg/disc ([5]; read-out: inhibition zones, CAL 106, 100 μg/disc) | zone of inhibition at 100 µg/disc ([5]; read-out: inhibition zones, CAL 107, 100 μg/disc) | zone of inhibition at 250 µg/disc ([6]; read-out: inhibition zones)
1 mm: zone of inhibition at 50 µg/disc ([3]; read-out: inhibition zones) | zone of inhibition at 25 µg/disc ([4]; 25 μg/disc, pH 7.00) | zone of inhibition at 50 µg/disc ([4]; 1M NaOH) | zone of inhibition at 50 µg/disc ([4]; pH 9.00) | zone of inhibition at 50 µg/disc ([5]; read-out: inhibition zones, CAL 104, 50 μg/disc) | zone of inhibition at 10000 µg/mL [6] | zone of inhibition at 50 µg/disc [11, 18] | zone of inhibition at 50 µg/disc [11, 19] | zone of inhibition at 50 µg/disc [11, 21] | zone of inhibition at 50 µg/disc [11, 22] | zone of inhibition at 50 µg/disc [11, 23] | zone of inhibition at 50 µg/disc [11, 24] | zone of inhibition at 50 µg/disc [11, 26] | zone of inhibition at 50 µg/disc [11, 27] | zone of inhibition at 50 µg/disc [11, 28] | zone of inhibition at 50 µg/disc [11, 29] | zone of inhibition at 50 µg/disc [11, 30] | zone of inhibition at 50 µg/disc [11, 31] | zone of inhibition at 50 µg/disc [11, 32] | zone of inhibition at 50 µg/disc [11, 33] | zone of inhibition at 50 µg/disc [11, 35] | zone of inhibition at 50 µg/disc [11, 36] | zone of inhibition at 50 µg/disc [11, 37] | zone of inhibition at 50 µg/disc [11, 38] | zone of inhibition at 100 µg/disc ([13]; read-out: inhibition zones, MSL 101) | zone of inhibition at 100 µg/disc ([13]; read-out: inhibition zones, MSL 102) | zone of inhibition at 100 µg/disc ([13]; read-out: inhibition zones, MSL 103) | zone of inhibition at 100 µg/disc ([13]; read-out: inhibition zones, MSL 104) | zone of inhibition at 100 µg/disc ([13]; read-out: inhibition zones, MSL 105) | zone of inhibition at 100 µg/disc ([13]; read-out: inhibition zones, MSL 107) | zone of inhibition at 100 µg/disc ([13]; read-out: inhibition zones, MSL 108) | zone of inhibition at 100 µg/disc ([13]; read-out: inhibition zones, MSL 109) | zone of inhibition at 100 µg/disc ([13]; read-out: inhibition zones, MSL 110) | zone of inhibition at 100 µg/disc ([13]; read-out: inhibition zones, MSL 111) | zone of inhibition at 100 µg/disc ([13]; read-out: inhibition zones, MSL 112)
< 0.5 mm: zone of inhibition at 100 µg/disc ([13]; read-out: inhibition zones, MSL 106) | zone of inhibition at 12.5 µg/disc ([14]; thymol 12.5 μg/disc)
11 mm: zone of inhibition at 100 µg/disc [9]
trace: inhibition zone ([4]; 25 μg/disc, pH 4.00)
7 mm: zone of inhibition at 250 µg/disc [11, 15]
1.5 mm: zone of inhibition at 100 µg/disc ([5]; read-out: inhibition zones, CAL 104, 100 μg/disc) | zone of inhibition at 100 µg/disc ([11]; read-out: inhibition zones, CAN 101)
2.5 mm: zone of inhibition at 150000 µg/mL ([13]; read-out: inhibition zones, MSL 109, 150 mg/ml)
45%: increase of the antibacterial activity of thymol [12]
2 mm: zone of inhibition at 100 µg/disc ([3]; read-out: inhibition zones) | zone of inhibition at 50 µg/disc ([4]; pH 4.00) | zone of inhibition at 50 µg/disc ([4]; pH 7.00) | zone of inhibition at 100 µg/disc ([4]; 1M NaOH) | zone of inhibition at 50 µg/disc ([5]; read-out: inhibition zones, CAL 101, 50 μg/disc) | zone of inhibition at 50 µg/disc ([5]; read-out: inhibition zones, CAL 103, 50 μg/disc) | zone of inhibition at 50 µg/disc ([5]; read-out: inhibition zones, CAL 105, 50 μg/disc) | zone of inhibition at 50 µg/disc ([5]; read-out: inhibition zones, CAL 106, 50 μg/disc) | zone of inhibition at 50 µg/disc ([5]; read-out: inhibition zones, CAL 107, 50 μg/disc) | zone of inhibition at 20000 µg/mL [6] | zone of inhibition at 100 µg/disc [8] | zone of inhibition at 100 µg/disc [11, 15] | zone of inhibition at 100 µg/disc ([11]; read-out: inhibition zones, CAN 103) | zone of inhibition at 100 µg/disc [11, 16] | zone of inhibition at 100 µg/disc [11, 17] | zone of inhibition at 100 µg/disc [11, 18] | zone of inhibition at 100 µg/disc [11, 20] | zone of inhibition at 100 µg/disc [11, 25] | zone of inhibition at 100 µg/disc [11, 34] | zone of inhibition at 100 µg/disc [11, 38] | zone of inhibition at 25 µg/disc ([14]; thymol 25.0 μg/disc)
3 mm: zone of inhibition at 20000 µg/mL [1] | zone of inhibition at 50 µg/disc [2] | zone of inhibition at 150000 µg/mL ([3]; read-out: inhibition zones) | zone of inhibition at 100 µg/disc ([4]; pH 9.00) | zone of inhibition at 100 µg/disc ([5]; read-out: inhibition zones, CAL 103, 100 μg/disc) | zone of inhibition at 100 µg/disc [11, 19] | zone of inhibition at 100 µg/disc [11, 21] | zone of inhibition at 100 µg/disc [11, 22] | zone of inhibition at 100 µg/disc [11, 23] | zone of inhibition at 100 µg/disc [11, 24] | zone of inhibition at 100 µg/disc [11, 26] | zone of inhibition at 100 µg/disc [11, 27] | zone of inhibition at 100 µg/disc [11, 28] | zone of inhibition at 100 µg/disc [11, 29] | zone of inhibition at 100 µg/disc [11, 30] | zone of inhibition at 100 µg/disc [11, 31] | zone of inhibition at 100 µg/disc [11, 32] | zone of inhibition at 100 µg/disc [11, 33] | zone of inhibition at 100 µg/disc [11, 35] | zone of inhibition at 100 µg/disc [11, 36] | zone of inhibition at 100 µg/disc [11, 37] | zone of inhibition at 50 µg/disc ([14]; thymol 50.0 μg/disc)
Tr.: inhibition zones ([11]; CAN 101) | inhibition zones ([11]; CAN 102) | inhibition zones ([11]; CAN 103) | inhibition zones ([11]; CAN 104) | inhibition zones ([11]; CAN 105) | inhibition zones ([11]; CAN 108) | inhibition zones ([11]; CAN 113) | inhibition zones ([11]; CAN 122)
5.5 mm: zone of inhibition at 50000 µg/mL [7]
8 mm: zone of inhibition at 100 µg/disc ([3]; read-out: Activity of thymol (zone)) | zone of inhibition at 100 µg/disc [10]
5 mm: zone of inhibition at 100 µg/disc ([5]; read-out: inhibition zones, CAL 102, 100 μg/disc) | zone of inhibition at 100 µg/disc ([5]; read-out: inhibition zones, CAL 108, 100 μg/disc) | zone of inhibition at 50000 µg/mL [6] | zone of inhibition at 250 µg/disc [11, 17] | zone of inhibition at 250 µg/disc [11, 19] | zone of inhibition at 250 µg/disc [11, 20] | zone of inhibition at 250 µg/disc [11, 23] | zone of inhibition at 250 µg/disc [11, 24] | zone of inhibition at 250 µg/disc [11, 25] | zone of inhibition at 250 µg/disc [11, 27] | zone of inhibition at 250 µg/disc [11, 28] | zone of inhibition at 250 µg/disc [11, 29] | zone of inhibition at 250 µg/disc [11, 30] | zone of inhibition at 250 µg/disc [11, 33] | zone of inhibition at 250 µg/disc [11, 34] | zone of inhibition at 250 µg/disc [11, 35] | zone of inhibition at 250 µg/disc [11, 36] | zone of inhibition at 250 µg/disc [11, 37] | zone of inhibition at 250 µg/disc [11, 38] | zone of inhibition at 75 µg/disc ([14]; thymol 75.0 μg/disc)
6 mm: zone of inhibition at 50000 µg/mL [1] | zone of inhibition at 100 µg/disc ([4]; pH 7.00) | zone of inhibition at 250 µg/disc [11, 16] | zone of inhibition at 250 µg/disc [11, 21] | zone of inhibition at 250 µg/disc [11, 22] | zone of inhibition at 250 µg/disc [11, 26] | zone of inhibition at 250 µg/disc [11, 31] | zone of inhibition at 250 µg/disc [11, 32] | zone of inhibition at 100 µg/disc ([14]; thymol 100.0 μg/disc)

Source: patent US20020090380A1, “Novel formulation comprising thymol useful in the treatment of drug resistant bacterial infections” (priority 2000, published 2002)
